The values that follow come from US6667336B2, “GlyT-1 inhibitors” (NPS Allelix Corp., priority 2002, dated 2003).

Values joined by “and” are separate entries in the source; they are usually repeats but may differ in a detail not shown here. Identical values can stand only once.

The test system of the series is male CD-1 mice. In words: 5 day chronic oral dosing toxicity study in mice (clinical signs). The class given is in vivo. The arrangement: key to Clinical signs (observation code), Day 1, 24 hours / Clinical signs (observation code), Day 2, 24 hours / Clinical signs (observation code), Day 3, 24 hours / Clinical signs (observation code), Day 4, 24 hours / Clinical signs (observation code), Day 5, 24 hours / Clinical signs (observation code), Day 1, 4 hours / Clinical signs (observation code), Day 2, 4 hours / Clinical signs (observation code), Day 3, 4 hours / Clinical signs (observation code), Day 4, 4 hours / Clinical signs (observation code), Day 5, 4 hours: 0: Appeared Normal; 1: Activity (inc./dec.); 2: Sedation/Lethargy; 3: Piloerection; 4: Stereotypy; 5: Soft Stool; 6: Chromodacryorrhea; 7: Epistaxis; 8: Cyanosis; 9: Flaccidity; 10: Respiration; 11: Hunched Posture; 12: Enophthalmia; 13: Exophthalmia; 14: Palpabral Ptosis; 15: Loss of Righting; 16: Chromaturia; 17: Salivation; 18: Lacrimation; 19: Miosis; 20: Mydriasis; 21: Rigidity; 22: Ataxia; 23: Tremors; 24: Convulsions; 25: Catalepsy; 26: Lateral Recumbency; 27: Death. The note with it: 40 mg/kg/day PO, male CD-1 mice, one line per animal. As to the method:
This example illustrated a 5 day chronic oral dosing toxicity study with GlyT1 inhibitors. […] Behavioral observations (clinical signs) and body weights were recorded daily for all compounds tested. Male CD-1 mice were purchased from Charles River Labs (Kingston, N.Y.). The animals weighed between 20-25 grams upon arrival. Animals were acclimatized in a temperature/humidity (72° ±5° F./50%±5%) controlled vivarium, with a common 12 hour light/dark cycle (Lights on 0700 hrs) for 5 days prior to test. All animals were allowed food (Purina Labdiete® Rodent chow # 5001) and water (supplied by Elizabethtown Water Company) ad libitum during the acclimation period and throughout the study. On the day prior to test initiation animals were randomly assigned to groups: All animals chosen for test weighed at least 20 grams and appeared in good condition. Each animal was dosed once daily for 5 days. Animals remained on site for a 3 day recovery period following the chronic dosing period.
A stock concentration of each test compound was prepared fresh on the day of study initiation. Aliquots were diluted to the needed concentrations for daily dosing. Stock solutions were kept in a refrigerator when not in use. Each compound was dissolved in a small amount of distilled water. One equivalent of sodium hydroxide (2 N) may have been added to aid in dissolution of each test agent. Vehicle was then added quantum sufficiat to give the final volume. Final volumes were adjusted to reflect percent free base when appropriate. The vehicle used in this experiment was Hydroxypropyl-β-cyclodextrine (HPCD) Acros, lot 011849601, dissolved in distilled water to form a 10% weight/volume concentration. The pH was adjusted, using sodium hydroxide (2 N), to equal that of the test agents (usually between 8 to 10). All prepared test compounds were either in solution, and clear, or in suspension, and slightly cloudy. Suspensions were mixed immediately prior to use.
All animals were administered either test compound or vehicle Per Os (PO) via 21 gauge gavage needles, in volumes of 10.0 ml/kg. Daily body weights were used to determine individual dosing volumes. All test compounds were weighed on a Denver Instruments analytical balance (model # A-250). Animals were weighed on a top loading Ohaus portable balance model # LS2000.
Animals were assessed for overt behaviors (clinical signs) immediately following administration of test agents, then again at 4 and 24 hours. Animals were assessed for 27 separate clinical signs:
Toxicity data obtained through the assay as described above is provided in Tables 1 to 14 for Compounds Gi to Gxiv inclusive. The animals were observed immediately following administration and again at 4 hours and 24 hours. Observations are reported using the code number from the following chart: […]

Regarding `CC(C)c1ccc(-c2ccc(/C(=C/CN(C)CC(=O)O)c3ccsc3)cc2)cc1` [Compound G(i), (Z)-N-(1-(4-(4-Isopropylphenyl)phenyl)-1-(3-thienyl)prop-1-en-3-yl)sarcosine], the “Clinical signs (observation code), Day 1, 4 hours” value (shortened to “Clinical signs … Day 1, 4 hours”) turned out to be 0; the “Clinical signs (observation code), Day 1, 24 hours” value (“Clinical signs … Day 1, 24 hours” below) was 0; the “Clinical signs (observation code), Day 2, 4 hours” value (shortened to “Clinical signs … Day 2, 4 hours”) was determined as 0; the “Clinical signs (observation code), Day 2, 24 hours” value (“Clinical signs … Day 2, 24 hours” below) stood at 0. The “Clinical signs (observation code), Day 3, 4 hours” value (shortened to “Clinical signs … Day 3, 4 hours”) was found to be 0; the “Clinical signs (observation code), Day 3, 24 hours” value (“Clinical signs … Day 3, 24 hours” below) worked out at 0; the “Clinical signs (observation code), Day 4, 4 hours” value (shortened to “Clinical signs … Day 4, 4 hours”) is given as 0; the “Clinical signs (observation code), Day 4, 24 hours” value (“Clinical signs … Day 4, 24 hours” below) is 0. Moreover, the “Clinical signs (observation code), Day 5, 4 hours” value (shortened to “Clinical signs … Day 5, 4 hours”) was determined as 0 and the “Clinical signs (observation code), Day 5, 24 hours” value (“Clinical signs … Day 5, 24 hours” below) amounted to 0.

For `CN(C/C=C(/c1ccc(-c2ccsc2)cc1)c1ccsc1)CC(=O)O` [Compound G(ii), (Z)-N-(1-(4-(3-Thienyl)phenyl)-1-(3-thienyl)prop-1-en-3-yl)sarcosine], the “Clinical signs … Day 1, 4 hours” value amounted to 0; the “Clinical signs … Day 1, 24 hours” value is 0; the “Clinical signs … Day 2, 4 hours” value is 0 (2×) and 1; the “Clinical signs … Day 2, 24 hours” value stood at 0. Moreover, the “Clinical signs … Day 3, 4 hours” value came out at 0; the “Clinical signs … Day 3, 24 hours” value is recorded as 0; the “Clinical signs … Day 4, 4 hours” value is on record as 0; the “Clinical signs … Day 4, 24 hours” value is given as 0. The “Clinical signs … Day 5, 4 hours” value was 0 and 14; the “Clinical signs … Day 5, 24 hours” value came to 0.

As to `CN(C/C=C(/c1ccc(-c2cccs2)cc1)c1ccsc1)CC(=O)O` [Compound G(iii), (Z)-N-(1-(4-(2-Thienyl)phenyl)-1-(3-thienyl)prop-1-en-3-yl)sarcosine], the “Clinical signs … Day 1, 4 hours” value is listed as 0; the “Clinical signs … Day 1, 24 hours” value worked out at 0; the “Clinical signs … Day 2, 4 hours” value is 0; the “Clinical signs … Day 2, 24 hours” value is 0. Also, the “Clinical signs … Day 3, 4 hours” value was found to be 0; the “Clinical signs … Day 3, 24 hours” value came to 0; the “Clinical signs … Day 4, 4 hours” value is 14 and 0; the “Clinical signs … Day 4, 24 hours” value stood at 0. The “Clinical signs … Day 5, 4 hours” value came to 0 and the “Clinical signs … Day 5, 24 hours” value was 0.

With `CN(C/C=C(/c1ccc(-c2ccco2)cc1)c1ccsc1)CC(=O)O` [Compound G(iv), (Z)-N-(1-(4-(2-Furyl)phenyl)-1-(3-thienyl)prop-1-en-3-yl)sarcosine], the “Clinical signs … Day 1, 4 hours” value is 0 and 14; the “Clinical signs … Day 1, 24 hours” value is given as 0; the “Clinical signs … Day 2, 4 hours” value was determined as 0; the “Clinical signs … Day 2, 24 hours” value is on record as 0. Besides, the “Clinical signs … Day 3, 4 hours” value was 14 (2×) and 0; the “Clinical signs … Day 3, 24 hours” value is 0; the “Clinical signs … Day 4, 4 hours” value worked out at 0; the “Clinical signs … Day 4, 24 hours” value was 0. Further, the “Clinical signs … Day 5, 4 hours” value is 0 (2×) and 14; the “Clinical signs … Day 5, 24 hours” value was 0.

With `CN(C/C=C(/c1ccc(-c2ccsc2)cc1)c1cccs1)CC(=O)O` [Compound G(ix), (Z)-N-(1-(4-(3-Thienyl)phenyl)-1-(2-thienyl)prop-1-en-3-yl)sarcosine], the “Clinical signs … Day 1, 4 hours” value is 0; the “Clinical signs … Day 1, 24 hours” value stood at 0; the “Clinical signs … Day 2, 4 hours” value worked out at 0; the “Clinical signs … Day 2, 24 hours” value is on record as 0. Also, the “Clinical signs … Day 3, 4 hours” value stood at 0; the “Clinical signs … Day 3, 24 hours” value is listed as 0; the “Clinical signs … Day 4, 4 hours” value was 0; the “Clinical signs … Day 4, 24 hours” value came to 0. The “Clinical signs … Day 5, 4 hours” value is listed as 0 and the “Clinical signs … Day 5, 24 hours” value was determined as 0.

As for `COc1cccc(-c2ccc(/C(=C/CN(C)CC(=O)O)c3ccsc3)cc2)c1` [Compound G(v), (Z)-N-(1-(4-(3-Methoxyphenyl)phenyl)-1-(3-thienyl)prop-1-en-3-yl)sarcosine], the “Clinical signs … Day 1, 4 hours” value amounted to 0; the “Clinical signs … Day 1, 24 hours” value came to 0; the “Clinical signs … Day 2, 4 hours” value is 0; the “Clinical signs … Day 2, 24 hours” value came out at 0. Also, the “Clinical signs … Day 3, 4 hours” value was 0; the “Clinical signs … Day 3, 24 hours” value came to 0; the “Clinical signs … Day 4, 4 hours” value is given as 0; the “Clinical signs … Day 4, 24 hours” value is on record as 0. The “Clinical signs … Day 5, 4 hours” value was 0 and the “Clinical signs … Day 5, 24 hours” value turned out to be 0.

In the case of `Cc1cccc(-c2ccc(/C(=C/CN(C)CC(=O)O)c3ccsc3)cc2)c1` [Compound G(vi), (Z)-N-(1-(4-(3-Methylphenyl)phenyl)-1-(3-thienyl)prop-1-en-3-yl)sarcosine], the “Clinical signs … Day 1, 4 hours” value turned out to be 0; the “Clinical signs … Day 1, 24 hours” value was 0; the “Clinical signs … Day 2, 4 hours” value is reported as 0; the “Clinical signs … Day 2, 24 hours” value is on record as 0. Further, the “Clinical signs … Day 3, 4 hours” value worked out at 0; the “Clinical signs … Day 3, 24 hours” value worked out at 0; the “Clinical signs … Day 4, 4 hours” value was determined as 0; the “Clinical signs … Day 4, 24 hours” value is 0. For the same compound, the “Clinical signs … Day 5, 4 hours” value was determined as 0 and the “Clinical signs … Day 5, 24 hours” value is 0.

For `CN(C/C=C(/c1ccc(-c2cccc(OC(F)(F)F)c2)cc1)c1ccsc1)CC(=O)O` [Compound G(vii), (Z)-N-(1-(4-(3-(Trifluoromethoxy)phenyl)phenyl)-1-(3-thienyl)prop-1-en-3-yl)sarcosine], the “Clinical signs … Day 1, 4 hours” value turned out to be 0; the “Clinical signs … Day 1, 24 hours” value came to 0; the “Clinical signs … Day 2, 4 hours” value amounted to 0; the “Clinical signs … Day 2, 24 hours” value was found to be 0. In addition, the “Clinical signs … Day 3, 4 hours” value is reported as 0; the “Clinical signs … Day 3, 24 hours” value turned out to be 0; the “Clinical signs … Day 4, 4 hours” value is recorded as 0; the “Clinical signs … Day 4, 24 hours” value was determined as 0. Further, the “Clinical signs … Day 5, 4 hours” value was determined as 0 and the “Clinical signs … Day 5, 24 hours” value amounted to 0.

`CN(C/C=C(/c1ccc(-c2cccc(C#N)c2)cc1)c1ccsc1)CC(=O)O` [Compound G(viii), (Z)-N-(1-(4-(3-Cyanophenyl)phenyl)-1-(3-thienyl)prop-1-en-3-yl)sarcosine]: the “Clinical signs … Day 1, 4 hours” value was found to be 0; the “Clinical signs … Day 1, 24 hours” value is on record as 0; the “Clinical signs … Day 2, 4 hours” value stood at 0; the “Clinical signs … Day 2, 24 hours” value is reported as 0. Besides, the “Clinical signs … Day 3, 4 hours” value was 0; the “Clinical signs … Day 3, 24 hours” value is 0; the “Clinical signs … Day 4, 4 hours” value was 0; the “Clinical signs … Day 4, 24 hours” value is 0. The “Clinical signs … Day 5, 4 hours” value is on record as 0 and the “Clinical signs … Day 5, 24 hours” value is on record as 0.

In the case of `Cc1cscc1/C(=C\CN(C)CC(=O)O)c1ccc(-c2ccsc2)cc1` [Compound G(x), (Z)-N-(1-(4-(3-Thienyl)phenyl)-1-(3-(4-methylthienyl))prop-1-en-3-yl)sarcosine], the “Clinical signs … Day 1, 4 hours” value is reported as 0; the “Clinical signs … Day 1, 24 hours” value is given as 0; the “Clinical signs … Day 2, 4 hours” value is listed as 0; the “Clinical signs … Day 2, 24 hours” value worked out at 0. Also, the “Clinical signs … Day 3, 4 hours” value is 0; the “Clinical signs … Day 3, 24 hours” value was 0; the “Clinical signs … Day 4, 4 hours” value was found to be 0; the “Clinical signs … Day 4, 24 hours” value is reported as 0. The “Clinical signs … Day 5, 4 hours” value amounted to 0.
